In patent EP4635500A1, “THERAPEUTIC AGENT FOR BACTERIAL INFECTION” (Sumitomo Pharma Co., Ltd., priority 2022, dated 2024):
In brackets after ≈: the same amount, converted by molar mass. Read-outs that look alike come from different tables or passages of the source.

Key:
[1] = test system: Klebsiella aerogenes; test: MIC, broth microdilution, standard strains and Japanese clinical isolates (Example 5, Table 4); assay type: cell-based; conditions: carbapenemase genes -
[2] = test system: P. aeruginosa; test: Systemic infection lethal mouse model, ED50 (Example 15, Table 33); conditions: for Survival rate: 7 days after infection; for ED50: Pseudomonas aeruginosa, in Mus musculus, sc
Protocol: The test strains on the agar medium were suspended in saline and adjusted to a Klett unit of about 200 using a Klett Photoelectric Colorimeter. […] Male ICR mice were inoculated intraperitoneally with 0.2 mL of the bacterial suspension. Two hours after the inoculation, saline or a solution for administering the agent of each concentration was administered subcutaneously to the mice in a single dose. The number of mice that survived from Day 1 to Day 7 after infection was recorded.

[3] = test system: Serratia marcescens; test: MIC, broth microdilution, standard strains and Japanese clinical isolates (Example 5, Table 4); assay type: cell-based
[4] = test system: Klebsiella pneumoniae; test: MIC, Gram-negative bacteria clinically isolated in the United States (Example 8, Table 16); assay type: cell-based; conditions: K. pneumoniae (80 strains) isolated in the United States, Compound A µg/mL in parentheses
[5] = test system: carbapenemase-producing Enterobacteriaceae (CPE); test: Bactericidal activity by bactericidal curve method (Example 10); assay type: cell-based, E. coli, Klebsiella pneumoniae; conditions: MEPM ≥1 x MIC; within 1 to 2 hours after culture; all four strains
[6] = test system: A. baumannii; test: MIC, broth microdilution, 6 strains (Example 6, Table 7); assay type: cell-based; conditions: Acinetobacter baumannii, Carbapenem-resistant, read-out: MIC
[7] = test system: carbapenemase-producing Enterobacteriaceae (CPE); test: MIC with human plasma or human serum albumin added (Example 12, Table 28); assay type: cell-based

With `C[C@@H](O)[C@H]1C(=O)N2C(C(=O)O)=C(S[C@@H]3CN[C@H](C(=O)N(C)C)C3)[C@H](C)[C@H]12` [MEPM, meropenem] the MIC ([1]; KUB3614 Klebsiella aerogenes Clinical isolate) was 2 µg/mL (≈ 5.22 µM), the MIC ([1]; KUB3615 Klebsiella aerogenes Clinical isolate) was 0.12 µg/mL (≈ 0.313 µM) and the Survival rate ([2]; CDC-90 (Serine), Dose 10 mg/kg) was 0%. For the same compound, the Survival rate ([2]; CDC-90 (Serine), Dose 30 mg/kg) was 10%, the Survival rate ([2]; CDC-90 (Serine), Dose 100 mg/kg) was 90% and the Survival rate ([2]; CDC-90 (Serine), Dose 300 mg/kg) was 100%. The Survival rate ([2]; CDC-110 (Metallo), Dose 100 mg/kg) was 0%, the Survival rate ([2]; CDC-110 (Metallo), Dose 150 mg/kg) was 30% and the Survival rate ([2]; CDC-110 (Metallo), Dose 200 mg/kg) was 60%. It also gave a Survival rate ([2]; CDC-110 (Metallo), Dose 300 mg/kg) of 60%, an ED50 ([2]; 2 h, read-out: ED50 of MEPM (95% confidence intervals), CDC-90 (Serine), single subcutaneous dose 2 hours after infection, with cilastatin at 100 mg/kg) of 54.8 mg/kg and an ED50 ([2]; 2 h, read-out: ED50 of MEPM (95% confidence intervals), CDC-110 (Metallo), single subcutaneous dose 2 hours after infection, with cilastatin at 100 mg/kg) of 218 mg/kg. It also gave an ED50 ([2]; read-out: ED50 of MEPM, P. aeruginosa CDC-90 (KPC-5), single s.c. dose, with cilastatin 100 mg/kg) of 54.8 mg/kg, an ED50 ([2]; read-out: ED50 of MEPM, P. aeruginosa CDC-110 (VIM-2), single s.c. dose, with cilastatin 100 mg/kg) of 218 mg/kg and an MIC ([3]; KUB3169 Serratia marcescens Clinical isolate, carbapenemase genes Unidentified, read-out: MIC) of 2 µg/mL (≈ 5.22 µM). The MIC ([3]; KUB3170 Serratia marcescens Clinical isolate, carbapenemase genes Unidentified) was 2 µg/mL (≈ 5.22 µM), the MIC ([3]; KUB3171 Serratia marcescens Clinical isolate, carbapenemase genes -) was 2 µg/mL (≈ 5.22 µM) and the MIC50 [4] was ≤ 0.125 µg/mL. The MIC90 [4] was 4 µg/mL (≈ 10.4 µM), the “reduction in the number of bacteria compared to preculture level” value [5] was 3 log10 and the MIC ([6]; A. baumannii strain with AMR gene ADC-25, OXA-23, OXA-66, TEM-ID) was 64 µg/mL (≈ 167 µM). The MIC ([6]; A. baumannii strain with AMR gene ADC-25, XA-23, OXA-66, strA, strB, sul2, TEM-1D) was 64 µg/mL (≈ 167 µM), the MIC ([6]; A. baumannii strain with AMR gene OXA-23, OXA-69, TEM-1D) was 16 µg/mL (≈ 41.7 µM) and the MIC ([7]; Escherichia coli, ATCC25922, read-out: MICs of MEPM, E. coli ATCC 25922 (quality control strain), Albumin 0% (standard condition)) was 0.015 µg/mL (≈ 0.0391 µM). For the same compound, the MIC ([7]; Escherichia coli, ATCC25922, read-out: MICs of MEPM, E. coli ATCC 25922 (quality control strain), Albumin 4%) was 0.03 µg/mL (≈ 0.0782 µM), the MIC ([7]; Escherichia coli, ATCC25922, read-out: MICs of MEPM, E. coli ATCC 25922 (quality control strain), Plasma 20%) was 0.03 µg/mL (≈ 0.0782 µM) and the MIC ([7]; Escherichia coli, ATCC25922, read-out: MICs of MEPM, E. coli ATCC 25922 (quality control strain), Plasma 50%) was 0.03 µg/mL (≈ 0.0782 µM). It also gave an MIC ([7]; Escherichia coli, ATCCBAA2340, read-out: MICs of MEPM, E. coli ATCC BAA-2340 (KPC-3), Albumin 0% (standard condition)) of 4 µg/mL (≈ 10.4 µM), an MIC ([7]; Escherichia coli, ATCCBAA2340, read-out: MICs of MEPM, E. coli ATCC BAA-2340 (KPC-3), Albumin 4%) of 4 µg/mL (≈ 10.4 µM) and an MIC ([7]; Escherichia coli, ATCCBAA2340, read-out: MICs of MEPM, E. coli ATCC BAA-2340 (KPC-3), Plasma 20%) of 4 µg/mL (≈ 10.4 µM). It also gave an MIC ([7]; Escherichia coli, ATCCBAA2340, read-out: MICs of MEPM, E. coli ATCC BAA-2340 (KPC-3), Plasma 50%) of 0.5 µg/mL (≈ 1.3 µM), an MIC ([7]; Escherichia coli, ATCCBAA2469, read-out: MICs of MEPM, E. coli ATCC BAA-2469 (NDM-1), Albumin 0% (standard condition)) of 32 µg/mL (≈ 83.4 µM) and an MIC ([7]; Escherichia coli, ATCCBAA2469, read-out: MICs of MEPM, E. coli ATCC BAA-2469 (NDM-1), Albumin 4%) of 16 µg/mL (≈ 41.7 µM). The MIC ([7]; Escherichia coli, ATCCBAA2469, read-out: MICs of MEPM, E. coli ATCC BAA-2469 (NDM-1), Plasma 20%) was ≤ 0.12 µg/mL, the MIC ([7]; Escherichia coli, ATCCBAA2469, read-out: MICs of MEPM, E. coli ATCC BAA-2469 (NDM-1), Plasma 50%) was ≤ 0.12 µg/mL and the MIC ([7]; Escherichia coli, NCTC13476, read-out: MICs of MEPM, E. coli NCTC 13476 (IMP-1), Albumin 0% (standard condition)) was 4 µg/mL (≈ 10.4 µM). For the same compound, the MIC ([7]; Escherichia coli, NCTC13476, read-out: MICs of MEPM, E. coli NCTC 13476 (IMP-1), Albumin 4%) was 4 µg/mL (≈ 10.4 µM), the MIC ([7]; Escherichia coli, NCTC13476, read-out: MICs of MEPM, E. coli NCTC 13476 (IMP-1), Plasma 20%) was 1 µg/mL (≈ 2.61 µM) and the MIC ([7]; Escherichia coli, NCTC13476, read-out: MICs of MEPM, E. coli NCTC 13476 (IMP-1), Plasma 50%) was 0.5 µg/mL (≈ 1.3 µM). It also gave an MIC ([7]; Klebsiella pneumoniae, ATCCBAA2342, read-out: MICs of MEPM, K. pneumoniae ATCC BAA-2342 (KPC-3), Albumin 0% (standard condition)) of 16 µg/mL (≈ 41.7 µM), an MIC ([7]; Klebsiella pneumoniae, ATCCBAA2342, read-out: MICs of MEPM, K. pneumoniae ATCC BAA-2342 (KPC-3), Albumin 4%) of 32 µg/mL (≈ 83.4 µM) and an MIC ([7]; Klebsiella pneumoniae, ATCCBAA2342, read-out: MICs of MEPM, K. pneumoniae ATCC BAA-2342 (KPC-3), Plasma 20%) of 16 µg/mL (≈ 41.7 µM).
